How the values were obtained:
Assay in all cases: relative viability (nuclei count vs DMSO), 5 days (fraction); higher = more cells survive
Bexarotene + Palbociclib = compound: C=C(c1ccc(C(=O)O)cc1)c1cc2c(cc1C)C(C)(C)CCC2(C)C [Bexarotene] + CC(=O)c1c(C)c2cnc(Nc3ccc(N4CCNCC4)cn3)nc2n(C2CCCC2)c1=O [Palbociclib] (partner 0.5 µM)
How it was run: (§1)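 Relative viability equals treated-well nuclei counts divided by vehicle-well nuclei counts. Counts came from 4× images of lung cancer cell lines grown in 1536-well plates for 5 days after pin-tool dosing on the day after seeding. Dosing used one drug alone or a fixed anchor-drug dose plus five library-drug doses (not always all listed) in √10 steps, and values are medians of duplicate plates.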

Bexarotene + Dasatinib = compound: C=C(c1ccc(C(=O)O)cc1)c1cc2c(cc1C)C(C)(C)CCC2(C)C [Bexarotene] + Cc1nc(Nc2ncc(C(=O)Nc3c(C)cccc3Cl)s2)cc(N2CCN(CCO)CC2)n1 [Dasatinib] (partner 0.075 µM)
How it was run: as §1

Bexarotene + Luminespib = compound: C=C(c1ccc(C(=O)O)cc1)c1cc2c(cc1C)C(C)(C)CCC2(C)C [Bexarotene] + CCNC(=O)c1noc(-c2cc(C(C)C)c(O)cc2O)c1-c1ccc(CN2CCOCC2)cc1 [Luminespib] (partner 0.01 µM)
How it was run: as §1

Bexarotene + Bortezomib = compound: C=C(c1ccc(C(=O)O)cc1)c1cc2c(cc1C)C(C)(C)CCC2(C)C [Bexarotene] + CC(C)C[C@H](NC(=O)[C@H](Cc1ccccc1)NC(=O)c1cnccn1)B(O)O [Bortezomib] (partner 0.002 µM)
How it was run: as §1

| Cell Line | relative viability (Bexarotene + Palbociclib; first compound 0.08 µM) | relative viability (Bexarotene + Palbociclib; first compound 0.253 µM) | relative viability (Bexarotene + Palbociclib; first compound 0.8 µM) | relative viability (Bexarotene + Palbociclib; first compound 2.53 µM) | relative viability (Bexarotene + Palbociclib; first compound 8 µM) | relative viability (Bexarotene + Dasatinib; first compound 0.08 µM) | relative viability (Bexarotene + Dasatinib; first compound 0.253 µM) | relative viability (Bexarotene + Dasatinib; first compound 0.8 µM) | relative viability (Bexarotene + Dasatinib; first compound 2.53 µM) | relative viability (Bexarotene + Dasatinib; first compound 8 µM) | relative viability (Bexarotene + Luminespib; first compound 0.08 µM) | relative viability (Bexarotene + Luminespib; first compound 0.253 µM) | relative viability (Bexarotene + Luminespib; first compound 0.8 µM) | relative viability (Bexarotene + Luminespib; first compound 2.53 µM) | relative viability (Bexarotene + Luminespib; first compound 8 µM) | relative viability (Bexarotene + Bortezomib; first compound 0.08 µM) | relative viability (Bexarotene + Bortezomib; first compound 0.253 µM) | relative viability (Bexarotene + Bortezomib; first compound 0.8 µM) | relative viability (Bexarotene + Bortezomib; first compound 2.53 µM) | relative viability (Bexarotene + Bortezomib; first compound 8 µM) |
| --- | --- | --- | --- | --- | --- | --- | --- | --- | --- | --- | --- | --- | --- | --- | --- | --- | --- | --- | --- | --- |
| COR-L 105 | 0.382 | 0.368 | 0.409 | 0.421 | 0.392 | 0.456 | 0.363 | 0.354 | 0.333 | 0.495 | 0.851 | 0.764 | 0.812 | 0.698 | 0.866 | 0.98 | 0.98 | 0.988 | 0.965 | 0.909 |
| LK-2 | 0.656 | 0.825 | 0.702 | 0.695 | 0.669 | 0.314 | 0.474 | 0.39 |  | 0.465 | 0.206 | 0.222 | 0.281 |  | 0.18 |  |  |  |  |  |
| NCI-H727 | 0.683 | 0.578 | 0.595 | 0.696 | 0.711 | 0.405 | 0.311 | 0.388 | 0.316 | 0.37 | 0.392 | 0.685 | 0.325 | 0.322 | 0.372 | 1.21 | 0.735 | 0.899 | 0.822 | 0.955 |
| RERF-LC-KJ | 1.07 | 1.02 | 0.817 | 0.999 | 0.922 | 0.757 | 0.707 | 0.703 | 0.825 | 0.742 | 1.17 | 1.23 | 1.1 | 1.1 | 1.07 | 1.17 | 1.12 | 1.03 | 1.06 | 1.17 |
| NCI-H2023 | 0.312 | 0.423 | 0.4 | 0.359 | 0.269 | 0.628 | 0.64 | 0.561 | 0.522 | 0.5 | 0.903 | 0.86 | 0.618 | 0.568 | 0.547 | 1.08 | 1.01 | 1.07 | 0.846 | 0.786 |
| NCI-H322M | 0.437 | 0.469 | 0.487 | 0.531 | 0.532 | 0.282 | 0.266 | 0.264 | 0.261 | 0.3 | 1.05 | 0.902 | 0.862 | 0.982 | 0.812 | 1.3 | 1.4 | 1.26 | 1.17 | 1.32 |
| NCI-H1666 | 0.618 | 0.746 | 0.545 | 0.631 | 0.565 | 0.793 | 0.826 | 0.783 | 0.788 | 0.77 | 0.922 | 0.978 | 0.916 | 0.907 | 0.816 | 0.742 | 0.701 | 0.727 | 0.719 | 0.75 |
| SW 900 | 0.553 | 0.41 | 0.52 | 0.423 | 0.411 | 0.703 | 0.55 | 0.505 | 0.544 | 0.772 | 0.167 | 0.17 | 0.148 | 0.189 | 0.163 |  |  |  |  |  |
| NCI-H2087 | 0.254 | 0.238 | 0.198 | 0.274 | 0.226 | 1.02 | 0.919 | 0.703 | 0.843 | 0.903 | 0.174 | 0.169 | 0.175 | 0.139 | 0.142 | 0.877 | 0.972 | 0.979 | 0.753 | 0.725 |
| LU99A | 0.449 | 0.395 | 0.355 | 0.468 | 0.371 | 0.748 | 0.703 | 0.711 | 0.613 | 0.699 | 0.268 | 0.251 | 0.238 | 0.291 | 0.244 | 1.36 | 1.26 | 1.12 | 1.23 | 1.21 |
| HCC-366 | 0.424 | 0.42 | 0.365 | 0.416 | 0.4 | 0.737 | 0.67 | 0.613 | 0.649 | 0.621 |  |  |  |  |  | 1.07 | 0.979 | 1.02 | 1.08 | 1.06 |
| EKVX | 0.37 | 0.366 | 0.384 | 0.438 | 0.362 | 0.515 | 0.512 | 0.567 | 0.523 | 0.463 | 0.918 | 0.837 | 0.922 | 0.787 | 0.851 | 0.999 | 1.28 | 1.07 | 1.1 | 1.09 |
| NCI-H2342 | 0.522 | 0.556 | 0.525 | 0.54 | 0.608 | 0.331 | 0.301 | 0.256 | 0.33 | 0.419 | 0.709 | 0.675 | 0.747 | 0.873 | 0.661 |  |  |  |  |  |
| NCI-H1755 | 0.463 | 0.479 | 0.438 | 0.48 | 0.44 | 0.436 | 0.395 | 0.366 | 0.403 | 0.361 | 0.391 | 0.504 | 0.679 | 0.52 | 0.438 | 1.02 | 1.03 | 1.02 | 1 | 0.957 |
| NCI-H647 | 0.467 | 0.358 | 0.443 | 0.367 | 0.369 | 0.173 | 0.153 | 0.123 | 0.0933 | 0.114 | 0.148 | 0.176 | 0.211 | 0.134 | 0.11 | 0.943 | 1.05 | 0.89 | 1.1 | 1.02 |
| LC-2-ad | 0.427 | 0.5 | 0.473 | 0.434 | 0.46 | 0.696 | 0.602 | 0.575 | 0.497 | 0.625 | 1.01 | 0.978 | 1.04 | 1 | 1.1 | 0.936 | 1.16 | 1.09 | 0.936 | 0.985 |
| NCI-H1793 | 0.31 | 0.318 | 0.284 | 0.264 | 0.327 | 0.367 | 0.366 | 0.409 | 0.406 | 0.399 | 0.2 | 0.152 | 0.164 | 0.15 | 0.335 |  |  |  |  |  |

From the supplement of paper PMC10307832
